Measured values as given in patent US10226476B2, “Method of attenuating reactions to skin irritants” (Dana-Farber Cancer Institute, Inc., priority 2001, dated 2019).
Entries after “also recorded” stand apart in the source; their conditions may differ.

System: oxazolone-induced contact hypersensitivity in mice
Assay: oxazolone-induced contact hypersensitivity (hapten-specific increase in ear thickness at 24 hours)
Assay type: in vivo, mouse
Conditions: for effect on CSH/CHS response to oxazolone, systemic administration: systemic (i.p.) administration
Text: 8-12 week old female C57B1/6 mice were purchased from Taconic Farms. Inc. (Germantown, N.Y.). The CD1d-null allele (generated in a 129×C57B1/6 founder (25) (26) was backcrossed 7 generations into the C57B1/6 strain. (15) Homozygous CD1d deficient mice were obtained from littermate pairings and used to generate heterozygote CD1d deficient and wild type controls. Breeding pairs of mice deficient for CD1d on the BALB/c background were purchased from Jackson Labs (Bar Harbor, Me.). The C57B1/6 and BALB/c J 281 null mice were established by specific deletion of the J 281 gene segment (27) (28). All mouse experiments were approved and conducted under IACUC guidelines.
Mice at least seven weeks of age were sensitized epicutaneously on day 0 with 70 μl of 4% 4-ethoxymethylene-2-phenyl-2-oxazolin-5-one (oxazolone, Sigma, St. Louis, Mo.) in acetone/olive oil (4/1) and challenged five days later on the right ear with 20 μl of 0.5% oxazolone or carrier only on the left ear. The hapten-specific increase in ear thickness at 24 hours was determined with a micrometer.
Mice received a series of 5 intraperitoneal injections of either 2 μg of αManCer (2 μg i.p. diluted in a solution of phosphate buffered saline and 0.5% Tween-20 every other day, starting 3 days prior to skin sensitization and continuing through to re-challenge.
Significant differences between groups were evaluated with a Mann-Whitney test, or where appropriate, a two tailed Student's t test. Mean differences were considered significant when p<0.05.

Compound: 1,2-Dipalmitoyl-sn-Glycero-3-Phosphoethanolamine-N-[Poly(ethylene glycol) 2000] [DPPE-PEG]
- effect on CSH/CHS response to oxazolone, systemic administration (result in words): inhibited CHS as effectively as α-ManCer
- inhibition of oxazolone-induced CSH in MHC-unrelated mouse strains (topical 100 mg/ml, SWR, C57B1/10, DBA, BALB/c mice, FIG. 5, result in words): effective inhibitor in all strains tested
- Half-maximal inhibition of CSH (topical concentration) (topical, applied with 4% oxazolone at sensitization, wild type C57B1/6 mice, FIG. 4A): 25 mg/mL
- inhibition of contact hypersensitivity, inhibitor present at both phases (topical, during both priming and recall, FIG. 4B, result in words): maximally inhibited
- inhibition of contact hypersensitivity, inhibitor present in one phase only (topical, only during priming or only during recall, FIG. 4B, result in words): also inhibited, but to a lesser extent
- inhibition of oxazolone-induced contact hypersensitivity, topical at sensitization (topical, with oxazolone on day 0 (100 mg/ml, or increasing doses 0-100 mg/ml), FIG. 3, 4A, result in words): inhibits oxazolone-induced contact hypersensitivity; also recorded: inhibit oxazolone-induced hypersensitivity in a dose-dependent manner

Compound: CCCCCCCCCCCCCCCC(=O)O [palmitic acid, reference compound]
- inhibition of CSH by control substances (specificity) (specificity controls for DPPE-PEG, FIG. 2 and data not shown, result in words): neither palmitic acid, nor PEG alone were effective inhibitors of CSH

Compound: CCCCCCCCCCCCCCCCCCCCCCCCCC(=O)N[C@@H](COC1O[C@H](CO)[C@H](O)[C@H](O)[C@H]1O)[C@H](O)[C@H](O)CCCCCCCCCCCCCC (stereo partly drawn) [α-GalCer, (2S,3S,4R)-1-O-(-D-galactopyranosyl)-2-(N-hexacosanoylamino)-1,3,4-octadecanetriol, reference compound]
- effect on CSH/CHS response to oxazolone, systemic administration (result in words): did not alter the CSH response
